Like-named read-outs stand apart in the source and are kept apart here.

One series concerns the target T1, AR(F876L) (Homo sapiens, UniProt P10275, F877L).
T1 construct: expressed in transfected cells; host or cells: HEK293
T1 sequence (P10275 1-920 F877L): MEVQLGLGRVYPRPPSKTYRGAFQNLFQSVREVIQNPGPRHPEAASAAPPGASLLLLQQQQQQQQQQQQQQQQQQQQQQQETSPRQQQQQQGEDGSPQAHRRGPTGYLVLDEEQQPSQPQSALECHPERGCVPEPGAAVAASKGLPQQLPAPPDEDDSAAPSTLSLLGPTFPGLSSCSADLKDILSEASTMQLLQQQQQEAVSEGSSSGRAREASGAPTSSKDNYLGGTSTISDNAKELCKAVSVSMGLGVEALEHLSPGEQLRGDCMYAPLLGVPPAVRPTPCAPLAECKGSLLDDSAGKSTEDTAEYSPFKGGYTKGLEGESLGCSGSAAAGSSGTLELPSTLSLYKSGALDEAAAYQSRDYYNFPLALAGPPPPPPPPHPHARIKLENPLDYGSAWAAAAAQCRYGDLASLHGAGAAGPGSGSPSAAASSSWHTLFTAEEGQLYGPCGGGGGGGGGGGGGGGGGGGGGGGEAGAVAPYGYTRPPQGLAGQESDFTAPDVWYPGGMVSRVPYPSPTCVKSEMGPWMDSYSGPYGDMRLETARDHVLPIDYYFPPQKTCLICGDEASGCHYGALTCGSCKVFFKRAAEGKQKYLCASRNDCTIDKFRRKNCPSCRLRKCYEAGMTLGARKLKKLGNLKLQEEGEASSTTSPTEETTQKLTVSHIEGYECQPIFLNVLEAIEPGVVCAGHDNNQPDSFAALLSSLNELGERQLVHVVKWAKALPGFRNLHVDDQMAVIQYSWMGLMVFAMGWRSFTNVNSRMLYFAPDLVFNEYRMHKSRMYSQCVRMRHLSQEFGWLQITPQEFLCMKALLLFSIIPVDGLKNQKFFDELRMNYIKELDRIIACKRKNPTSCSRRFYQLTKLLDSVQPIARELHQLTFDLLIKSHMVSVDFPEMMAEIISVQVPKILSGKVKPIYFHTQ
As to the kind of experiment: Mutant AR antagonistic activity test, F876L (reporter gene in HEK293 cells). Type of series: cell-based. The conditions noted are these: DHT 10 nM, 24 hours, read-out: F876L IC50(nM) 2nd gen AR antagonist resistant mutation. The method, then: HEK293 cells were cultured in DMEM supplemented with 10% FBS and 1% GlutaMax at 37° C. with 5% CO2. The day before transfection, the medium was changed to DMEM containing 10% charcoal-stripped FBS and 1% GlutaMax. […] The cell suspension was diluted with cell seeding solution, and the transfection reagent was added to achieve 500,000 cells/mL. Subsequently, 90 μL of cell suspension was seeded into each well of the assay plate. The next day, compounds were prepared: starting from 8 mM, 3-fold serial dilutions were performed in DMSO for a total of 8 points, then 500 nL was transferred to the compound plate using Echo. The compounds were then diluted with 40 μL of medium to 10× final concentration, and 10 μL was transferred to the cell plate and incubated at 37° C. for 30 minutes. Subsequently, 10 nL of DHT at a final concentration of 10 nM was transferred to each well of the assay plate using TECAN. After 24 hours of incubation, 100 μL of Steady-Glo was added to the assay plate and read on an Envision reader. Data were determined and analyzed using GraphPad Prism.
In general terms: Reporter assays use an easily measured gene product as a stand-in for the process of interest.

The test system of series [1] is 22RV1 prostate cancer cells. Put plainly: Anti-proliferative activity against resistant 22RV1 cells expressing AR-V7. Type of series: cell-based. The conditions noted are these: Homo sapiens; 22RV1 cells expressing AR-V7 splice variant; read-out: Antiproliferative activity IC50. Here is the method: The cells were then digested with trypsin and counted using an automated cell counter to determine cell density. The cell suspension was diluted to the desired density in growth medium. Subsequently, 100 μL of the cell suspension was seeded into 96-well plates and incubated at 37° C. with 5% CO2 for 24 hours. 10 μL of drug solution (including 3-fold serial dilutions of compounds or DMSO) was added to each well, and the plates were incubated at 37° C. with 5% CO2 for 6 days. Prior to measurement, the assay plates were equilibrated to room temperature. 40 μL of CellTiter-Glo® reagent was added to each well. The plates were mixed on an orbital shaker for 2 minutes to induce cell lysis. After incubation at room temperature for 60 minutes to stabilize the luminescence signal, the plates were read on an Envision plate reader.
The experimental procedure was essentially the same as that for LNCaP cells.

A short description of series [2]: In vivo pharmacokinetics in rats after oral gavage. As to conditions: male SD rats, PO 10 mg/kg. Here is the method:
Male SD rats were randomly divided into 6 groups, 3 rats per group. The rats were fasted but not water-deprived for 12-14 h one day before dosing. The test samples were then dissolved in a solvent of 5% DMSO+30% PEG400+65% (0.5% MC) and administered by gavage at 10 mg/kg. Food was provided 4 h after dosing. Blood samples (0.10 mL) were collected via the orbital sinus at 0, 15, 30 min, 1, 2, 4, 6, 8, and 24 h, with EDTA-K2 as anticoagulant. Blood samples were placed on ice after collection and centrifuged to separate plasma within 30 minutes (centrifugation conditions: 5000 rpm, 10 minutes, 4° C.). 50.0 μL of plasma sample (taken from −80° C. freezer, thawed naturally at room temperature and vortexed for 30 seconds) was added to a 1.5 mL centrifuge tube, followed by addition of 500 μL internal standard solution (methanol (TEDIA, HPLC grade), acetonitrile (TEDIA, HPLC grade), formic acid (FA, ACROS ORGANICS, HPLC grade), water was laboratory-made ultrapure water (100.0 ng·mL−1)). The mixture was vortexed for 60 seconds and centrifuged for 3 minutes (centrifugal force 12000 rpm). 100 μL of the supernatant was transferred to a 96-well injection plate containing an equal volume of water, mixed by shaking, and analyzed by LC-MS/MS with an injection volume of 10 μL. The data acquisition and control system software was Analyst 1.5.1 software (Applied Biosystem). The chromatographic sample peaks were integrated automatically. The ratio of sample peak area to internal standard peak area was used as an indicator for regression with sample concentration.
The pharmacokinetic parameters of representative compounds of the present invention were tested in male SD rats after oral gavage administration at 10 mg/kg according to the above conventional method to examine the pharmacokinetic characteristics of the compounds of the present invention in rats.

One may read the IC50 as the midpoint of a concentration-inhibition curve. In general, Cmax refers to the peak of the concentration-time curve. For orientation: AUC(0-inf) means the area under the concentration-time curve extrapolated to infinity. High values mean more exposure, low ones less exposure. One may read the AUC(0-t) as the area under the concentration-time curve up to a stated or last time point. In the case of `Cc1cn(C2=CCC3C4CC=C5C[C@@H](NC(=O)c6ccc(F)cc6)CC[C@]5(C)C4CC[C@]23C)cn1` (stereo partly drawn) [Compound 33, N-((3S,10R,13S)-17-(4-methyl-1H-imidazol-1-yl)-10,13-dimethyl-2,3,4,7,8,9,10,11,12,13,14,15-dodecahydro-1H-cyclopenta[a]phenanthren-3-yl)-4-fluorobenzamide], the half-inhibitory concentration (IC50) at AR(F876L) is 390 nM. In series [1], the IC50 was 624 nM. In series [2], this molecule had a Cmax of 6431 ng/mL, a Kel of 0.214 h⁻¹, an MRTPO of 6.03 h and a T1/2 of 3.28 h. In series [2], the tmax is reported as 4.00 h. Moreover, in series [2] (rat, plasma), the total exposure AUC(0-inf) stood at 69500 ng·h/mL and the AUC(0-t) was 68900 ng·h/mL.
For `Cc1cn(C2=CCC3C4CC=C5C[C@@H](NC(=O)c6ccc(S(C)(=O)=O)cc6)CC[C@]5(C)C4CC[C@]23C)cn1` (stereo partly drawn) [Compound 35, N-((3S,10R,13S)-17-(4-methyl-1H-imidazol-1-yl)-10,13-dimethyl-2,3,4,7,8,9,10,11,12,13,14,15-dodecahydro-1H-cyclopenta[a]phenanthren-3-yl)-4-(methylsulfonyl)benzamide], the results for the IC50 (on AR(F876L); in series [1]) were 326 nM and 651 nM, respectively.
Regarding `Cc1cn(C2=CCC3C4CC=C5C[C@@H](NC(=O)c6ccc(F)cc6F)CC[C@]5(C)C4CC[C@]23C)cn1` (stereo partly drawn) [Compound 37, N-((3S,10R,13S)-17-(4-methyl-1H-imidazol-1-yl)-10,13-dimethyl-2,3,4,7,8,9,10,11,12,13,14,15-dodecahydro-1H-cyclopenta[a]phenanthren-3-yl)-2,4-difluorobenzamide], the concentration for half-maximal inhibition (IC50) at AR(F876L) stood at 273 nM. Also, the concentration for half-maximal inhibition (IC50) in series [1] is 452 nM. Besides, in series [2], the Kel is 0.124 h⁻¹, the MRTPO is on record as 10.0 h, the T1/2 is given as 6.02 h and the tmax is recorded as 6.00 h. In series [2] (rat, plasma), this molecule had an area under the curve AUC(0-inf) of 24500 ng·h/mL and an AUC(0-t) of 22500 ng·h/mL. Also, in series [2] (rat, plasma, read-out: Cmax), the highest concentration (Cmax) worked out at 1550 ng/mL.
Take `Cc1cn(C2=CCC3C4CC=C5C[C@@H](NC(=O)c6ccncc6)CC[C@]5(C)C4CC[C@]23C)cn1` (stereo partly drawn) [Compound 14, N-((3S,10R,13S)-10,13-dimethyl-17-(4-methyl-1H-imidazol-1-yl)-2,3,4,7,8,9,10,11,12,13,14,15-dodecahydro-1H-cyclopenta[a]phenanthren-3-yl)isonicotinamide]: at AR(F876L), the 50% inhibitory concentration (IC50) came to 268 nM. For the same molecule, the half-maximal inhibitory concentration (IC50) in series [1] was determined as 591 nM. In addition, in series [2], the Cmax was 2670 ng/mL, the Kel is 0.252 h⁻¹, the MRTPO was 5.12 h and the T1/2 was 2.80 h. Also, the tmax in series [2] was 2.17 h. In series [2] (rat, plasma), this molecule yielded an area under the curve AUC(0-inf) of 24800 ng·h/mL and an area under the curve AUC(0-t) of 24800 ng·h/mL.
